Measured values reported in patent US6906061B2, “Pharmaceutical agent containing Rho kinase inhibitor” (Mitsubishi Pharma Corporation, priority 1996, dated 2005).
Structures can show the parent of a compound that is named as a salt.

Tests used:
Human SK-Mel-28 melanoma = experiment: Inhibition of cell growth of SK-Mel-28 melanoma; format: cell-based; conditions: 72 hours, MTT
Method: Inhibition of Cell Growth of SK-Mel-28 Melanoma
Human SK-Mel-28 melanoma (10^4 cells) and the test compound were suspended in RPMI1640 medium containing 100 μl of 10% FBS and incubated in a 96 well plate at 37° C. under 5% CO2 gas for 72 hours. After the incubation, 10 μl of MTT (5 mg/ml) was added to each well and the cells were incubated at 37° C. under 5% CO2 gas for 4 hours. Then, 10% sodium dodecyl sulfate and 0.01 N hydrochloric acid solution were each added by 10 μl to respective wells. After the plate was stood overnight, absorbance at 570 nm was measured using a microplate reader and the inhibition percentage (% cytotoxicity) was calculated by the following formula.
The cytotoxicity against human cultured tumor cells was confirmed by pigment method (Carmichael et al., Cancer Res., 47, 936-942, 1987: Mosman, J. Immunol. Methods, 65, 55-63, 1983) using 3-(4,5-dimethylthiazol-2-yl)-2,5-diphenyltetrazolium bromide (MTT).
The test compound was dissolved in dimethyl sulfoxide and diluted with RPMI 1640 medium before use. The final dimethyl sulfoxide concentration was adjusted to not more than 0.25%.

mouse femoral bone = experiment: Inhibition of bone resorption (in vitro), mouse femoral bone; conditions: 144 h, 6 days incubation of ICR mouse femoral bone
Method: Inhibition of Bone Resorption (in vitro)
The determination of the in vitro inhibition of bone resorption using mouse femoral bone followed the method below.
The femoral bone of 3-6 week old male ICR mice was aseptically removed, and bone marrow cavity was washed with F12 medium, containing 10% heat inactivated fetal bovine serum, penicillin G calcium (100 units/ml), kanamycin sulfate (60 μg) and 0.15% sodium hydrogencarbonate (hereinafter the medium is to be referred to as culture solution). After washing the bone marrow cavity and then removing the soft tissue adhered to the bone, the bone was subjected to incubation. The test compound was once dissolved in dimethyl sulfoxide (DMSO) to give a 10 mg/ml solution, which was diluted 1000-fold with the culture solution to give a 10 μg/ml solution. The test compounds were respectively added to the concentration shown in Table 7 and, using this culture solution (1.2 ml), the ICR mouse femoral bone was incubated in a 24 well plate for 6 days under the conditions of 5% CO2 gas, 95% air. After the completion of the incubation, the culture supernatant was recovered, and the amount of calcium suspending in the culture supernatant was quantitatively determined by the chelate method using o-cresolphthalein. The bone resorption inhibitory action of the test compound was calculated by the following formula using the incubation of the femoral bone without addition of the test compound as a control. [formula] This experiment was done with 4 cases in each group. As the control, the same amount of DMSO alone as in the case with the addition of the test compound was used.

[1] = test system: smooth muscle cell (SMC) from rat aorta; experiment: Inhibition of growth of vascular smooth muscle cell; format: cell-based; conditions: 48 hours, MTT
Method: Inhibition of Growth of Vascular Smooth Muscle Cell
The separation from the artery of rat and culture of smooth muscle cell (SMC) followed the explant method of Ross (Ross, R. and Glomset, J. A., N. Engl. J. Med., 295, 369-420, 1976). Male wistar rats (10 week old) was slaughtered by cutting the carotid arteries and aorta of thorax was removed. After removal of fat tissues around the tunica externa and peeling of tunica intima, the artery was minced and incubated in 10% fetal bovine serum (FBS)-containing DMEM medium at 37° C. under 5% CO2 gas. Seven days later, the out-grown cells were separated by trypsin treatment, washed with phosphate-buffered saline (PBS) and incubated in 10% FBS-containing DMEM medium in a 80 cm^2 culture flask. The cells of subculture 2 were suspended in 10% FBS-containing DMEM medium at 5×10^4 cells/ml and 100 μl thereof per well was added to 96 well collagen-coated plate, which was incubated at 37° C. under 5% CO2 gas for one day. The test compound was appropriately diluted with dimethyl sulfoxide (DMSO) and added to the 96 well plate. The concentration of DMSO in the medium was adjusted to 1%. After 48 hours, 10 μl of MTT solution (5 mg/ml) was added and, 4 hours later, 10% sodium dodecyl sulfate-0.01 N hydrochloric acid (50 μl) was added. The absorbance at 570 nm was measured the following day by an immunoreader. The SMC growth inhibitory action of the test compound was shown by inhibition percentage calculated by the following formula The results are shown in Table 10.

[2] = test system: hind limb skin blood flow; experiment: Peripheral blood flow increasing action in STZ-induced diabetic rats; format: in vivo, rat; conditions: intravenous, 1 μg
Method: Peripheral Blood Flow Increasing Action
Streptozotocin (STZ, 65 mg/kg) was intravenously injected to male SD rats (body weight 200-300 g) to prepare diabetic rats. One month later, STZ-induced diabetic rats were anesthetized with pentobarbital sodium and the blood flow in the hind limb skin was measured with laser blood flowmeter (ALF21R, Advance). The test compound was intravenously administered via catheter dwelled in the carotid arteries, and hind limb skin blood flow increasing action was observed. The blood flow increasing action of the test compound was expressed by increase percentage from the blood flow before administration.

[3] = test system: thoractic aorta ring contracted with phenylephrine; experiment: Vasodilating action on phenylephrine-contracted thoracic aorta rings; conditions: rabbit aortic ring, phenylephrine 10^−6 M contraction; concentration for 50% relaxation; read-out: Vasorelaxing action
Method: Male rabbits (body weight 1.9-3.0 kg) were anesthetized with pentobarbital sodium and exsanguinated, whereafter thoractic aorta was removed. An about 2 mm width aortic ring samples were prepared and hung in a Magnus bath (40 ml) filled with Krebs-Henseleit solution (37° C., NaCl 117 mM; KCl 4.7 mM; CaCl2 2.5 mM; MgSO4 1.2 mM; NaHCO3 24.8 mM; KH2PO4 1.2 mM; glucose 11.0 mM) at a load of 2 g. The Magnus bath was constantly bubbled with a mixed gas (95% O2+5% CO2 gas). The tension of the preparation was measured with an isomeric transducer (TB-611T, Nippon Koden). The preparation was contracted with phenylephrine (10^−6 M) and, after the contraction was stabilized, the test compound was added accumulatively and relaxing action was observed.

[4] = test system: trachea specimen contracted with acetylcholine; experiment: Effect on contraction by acetylcholine of trachea specimen removed from guinea pig; conditions: acetylcholine 10^−6 M contraction, 50% relaxation vs papaverine 10^−4 M maximum, read-out: Trachea relaxing action
Method: Male Hartley guinea pigs (body weight 260-390 g) were anesthetized by the peritoneal administration of pentobarbital sodium (100 mg/kg) and exsanguinated, whereafter trachea was removed. The anterior cartilage of the trachea was opened and the band was cut in a 3 mm width strip to give a specimen. The specimen was hung in a Magnus bath (40 ml) filled with Krebs-Henseleit solution (NaCl 117 mM; KCl 4.7 mM; CaCl2 2.5 mM; MgSO4 1.2 mM; NaHCO3 24.8 mM; KH2PO4 1.2 mM; glucose 11.0 mM) at a load of 1 g. The Magnus bath was constantly bubbled with a mixed gas (95% O2+5% CO2 gas). The tension of the strip was measured with an isomeric transducer (TB-611T, Nippon Koden) and depicted on a recorder (Ti-102, Tokai Irika).

[5] = target: T1, Human Platelet Rho Kinase (p160ROCK) (Homo sapiens, UniProt Q13464); experiment: Rho kinase inhibitory action (inhibition of human platelet Rho kinase (p160ROCK)); format: biochemical; conditions: histone substrate, 1 μM ATP
T1 construct: Human platelet p160ROCK was isolated by the method of Ishizaki et al; from tissue; host or cells: human platelets
Method: Rho Kinase Inhibitory Action (Inhibition of Human Platelet Rho Kinase (p160ROCK))
Kinase assay included the following steps. That is, a reaction mixture (total amount 30 μl) containing 50 mM Hepes-NaOH (pH=7.4), 10 mM MgCl2, 5 mM MnCl2, 2 mM dithiothreitol, 0.02% Brij35, 1 μM [γ-^32P]ATP, 330 μg/ml histone, p160ROCK (2 μl) isolated by the method of Ishizaki et al. and the test compound was incubated at 30° C. for 20 minutes. The solution was mixed with a 1/3 amount of 4× Laemmli sample buffer, boiled for 5 minutes and applied to SDS-PAGE. The gel was stained with Coomassie Brilliant Blue and dried. The band of histone was cut out and assayed for radioactivity.

[6] = test system: BALB/c spleen cells stimulated with C57BL/6 spleen cells; experiment: Inhibition of mouse allogenic mixed lymphocyte reaction; format: cell-based; conditions: Mus musculus, Lymphocyte, 96 h; 4 days culture, MTT; read-out: Mouse allogenic MLR inhibitory activity IC50
Method: Inhibition of Mouse Allogenic Mixed Lymphocyte Reaction
A mouse allogenic mixed lymphocyte reaction (hereinafter to be referred to as mouse allogenic MLR) was performed by mixed culture (equal ratio) of the spleen cell of BALB/c mice as the reaction cell and the spleen cell of C57BL/6 mice treated with mitomycin C as stimulated cell.
The reaction cells were prepared by the following method. Spleen was removed from 5-6 week old BALB/c mice and treated with RPMI1640 medium (containing kanamycin sulfate (60 μg/ml), penicillin G potassium (100 units/ml), N-2-hydroxyethylpiperazine-N′-2-ethanesulfonate (10 mM), 0.1% sodium hydrogencarbonate and L-glutamin (2 mM)) supplemented with 5% heat inactivated fetal bovine serum (FBS) to give a single cell suspension of the spleen cell. After hemolysis treatment, the suspension was adjusted to10^7 cells/ml with RPMI1640 medium containing 10^−4 M 2-mercaptoethanol and 10% FBS and used as a reaction cell suspension.
The reaction cell suspension (50 μl) prepared by the above method, stimulated cell suspension (50 μl) and the test compound (100 μl) prepared using RPMI1640 medium containing 10% FBS were added to a 96 well plate and incubated at 37° C. under 5% CO2 gas, 95% air for 4 days.
A pigment assay using 3-(4,5-dimethylthiazol-2-yl)-2,5-diphenyltetrazolium bromide (MTT) was applied for the determination of lymphocyte transformation reaction.
After the completion of culture, the supernatant (100 μl) in each well was removed, and 5 mg/ml MTT solution (20 μl) was added to each well, which was followed by incubation at 37° C. for 4 hours. Then, a 0.01 N hydrochloric acid solution (100 μl) containing 10% sodium dodecyl sulfate was added and the mixture was incubated at 37° C. overnight. The resulting purple crystals of formazan was dissolved and absorbance at 550 nm was measured using a microplate absorption meter, which was used as the index of lymphocyte transformation reaction of the mouse allogenic MLR. The inhibition of mouse allogenic MLR was evaluated by calculating the inhibition percentage by the following formula The results are shown in Table 7.

T1 sequence (Q13464 whole entry): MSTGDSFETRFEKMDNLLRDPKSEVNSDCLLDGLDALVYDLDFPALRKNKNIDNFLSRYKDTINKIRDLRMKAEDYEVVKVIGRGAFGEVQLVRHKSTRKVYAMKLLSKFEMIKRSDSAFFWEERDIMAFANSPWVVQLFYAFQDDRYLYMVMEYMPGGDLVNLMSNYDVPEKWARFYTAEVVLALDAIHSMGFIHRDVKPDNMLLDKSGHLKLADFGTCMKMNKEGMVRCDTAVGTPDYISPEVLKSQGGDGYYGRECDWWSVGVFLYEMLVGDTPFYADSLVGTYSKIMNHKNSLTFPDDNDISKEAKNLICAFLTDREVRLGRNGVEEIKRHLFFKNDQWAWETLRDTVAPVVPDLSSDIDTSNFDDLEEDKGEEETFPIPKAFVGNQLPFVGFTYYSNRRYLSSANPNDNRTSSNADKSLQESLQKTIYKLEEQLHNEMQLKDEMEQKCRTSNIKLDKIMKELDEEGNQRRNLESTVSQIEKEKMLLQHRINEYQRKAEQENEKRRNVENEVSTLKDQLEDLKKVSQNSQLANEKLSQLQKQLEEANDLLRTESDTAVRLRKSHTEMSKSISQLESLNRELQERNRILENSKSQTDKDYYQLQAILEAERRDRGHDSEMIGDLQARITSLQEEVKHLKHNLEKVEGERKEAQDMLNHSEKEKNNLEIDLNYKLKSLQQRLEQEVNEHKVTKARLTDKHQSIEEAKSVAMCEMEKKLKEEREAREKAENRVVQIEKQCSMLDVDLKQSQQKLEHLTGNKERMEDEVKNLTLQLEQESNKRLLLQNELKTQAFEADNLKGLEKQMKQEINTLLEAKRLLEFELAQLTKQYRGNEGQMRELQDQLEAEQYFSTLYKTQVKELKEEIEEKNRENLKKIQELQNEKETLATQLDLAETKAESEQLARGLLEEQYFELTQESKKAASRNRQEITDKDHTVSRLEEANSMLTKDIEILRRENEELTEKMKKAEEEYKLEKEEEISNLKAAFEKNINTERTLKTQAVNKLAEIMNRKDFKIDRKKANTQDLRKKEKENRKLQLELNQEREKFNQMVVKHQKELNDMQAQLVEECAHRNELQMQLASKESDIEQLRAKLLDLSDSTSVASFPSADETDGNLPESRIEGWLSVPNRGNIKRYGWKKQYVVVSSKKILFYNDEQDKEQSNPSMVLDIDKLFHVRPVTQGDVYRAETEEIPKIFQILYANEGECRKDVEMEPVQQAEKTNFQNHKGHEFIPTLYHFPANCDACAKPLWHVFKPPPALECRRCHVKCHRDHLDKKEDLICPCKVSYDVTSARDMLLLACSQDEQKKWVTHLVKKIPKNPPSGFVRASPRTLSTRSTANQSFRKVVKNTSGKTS

SMILES	IC50 (Human SK-Mel-28 melanoma) [µM]	IC50 [1] [µM]	also measured
NC[C@H]1CC[C@H](C(=O)Nc2ncnc3[nH]ncc23)CC1 [Compound 115.2HBr.1/4H2O, trans-N-(1H-pyrazolo[3,4-d]pyrimidin-4-yl)-4-aminomethylcyclohexanecarboxamide]	9		
N=C(N)NC[C@H]1CC[C@H](C(=O)Nc2ccnc3[nH]ccc23)CC1 [Compound 142.2HCl.H2O, trans-N-(1H-pyrrolo[2,3-b]pyridin-4-yl)-4-guanidinomethylcyclohexanecarboxamide]	59		inhibition at 100 µM (mouse femoral bone): 44.2%
Cn1ccc2c(NC(=O)[C@H]3CC[C@H](CNC(=N)N)CC3)ccnc21 [Compound 145.2HCl.H2O, trans-N-(1-methylpyrrolo[2,3-b]pyridin-4-yl)-4-(guanidinomethyl)cyclohexanecarboxamide]	62		
C[C@@H](N)c1ccc(C(=O)Nc2ccncc2)cc1 [Compound 157.HCl.H2O, (R)-(+)-N-(4-pyridyl)-4-(1-aminoethyl)benzamide]		55	Increase in skin blood flow ± standard error (%) [2]: 211.6 ± 13.6%
C[C@@H](N)c1ccc(C(=O)Nc2ccnc3[nH]ccc23)cc1N=[N+]=[N-] [Compound 179.2HBr.1/2H2O, (R)-(−)-N-(1H-pyrrolo[2,3-b]pyridin-4-yl)-4-(1-aminoethyl)-3-azidebenzamide]			IC50 [3]: 0.03 µM; IC50 [4]: 0.029 µM
CC1CNCCN1S(=O)(=O)c1cccc2cnccc12 (stereo not drawn) [Compound 308.2HCl, 1-(5-isoquinolinesulfonyl)-2-methylpiperazine]			IC50 [5]: 5 µM; IC50 [6]: 13.9 µM
CCCCCCCCNC(=N)NC[C@H]1CC[C@H](C(=O)Nc2ccnc3[nH]ccc23)CC1 [compound 153.2HCl, trans-N-(1H-pyrrolo[2,3-b]pyridin-4-yl)-4-(3-octylguanidinomethyl)cyclohexanecarboxamide]		27	
C[C@@H](N)c1ccc(C(=O)Nc2ccncc2)cc1Cl [compound 163.2HBr, (R)-(+)-N-(4-pyridyl)-4-(1-aminoethyl)-3-chlorobenzamide]		63	
